According to US20210393606A1, “THERAPEUTIC AGENT FOR FRONTAL LOBE DYSFUNCTION” (KYOWA HAKKO KIRIN CO., LTD., priority 2015, published 2021):

Assays:
[1] = tested on: medial prefrontal dopaminergic terminal-lesioned rat; assay: Object recognition test using medial prefrontal dopaminergic terminal-lesioned rat; type: in vivo; details: lesioned rats
Source text: The object recognition test is known as an evaluation system of cognitive function utilizing properties of animal to willingly explore a new object (Behavioural Brain Research 31, p. 47 (1988)). An animal is placed in an apparatus containing two identical objects and allowed to freely explore (acquisition trial), after which one of the objects in the apparatus is changed to one having a different shape (novel object) and the animal is allowed to freely explore (test trial). […] In this test, such property is evaluated as an index of cognitive function.
CD(SD)IGS rat (male, Charles River) received Pentobarbital sodium salt (Tokyo Chemical Industry Co., Ltd., 30 mg/kg) intraperitoneally and fixed on a brain stereotaxis apparatus (SR-6, Narishige kagaku kikai kenkyusho) under anesthesia. Using a microinjection pump (CMA/100, Carnegie Medicine), dopaminergic neurotoxin, 6-hydroxidopamine hydrochloride (6-OHDA, Sigma-Aldrich) was injected over about 1 min at (1) 3.2 mm anterior, 0.8 mm left lateral and 3.0 mm ventral, (2) 3.2 mm anterior, 0.8 mm right lateral and 3.0 mm ventral, (3) 3.2 mm anterior, 0.8 mm left lateral and 5.0 mm ventral, (4) 3.2 mm anterior, 0.8 mm right lateral and 5.0 mm ventral, (5) 4.2 mm anterior, 0.8 mm left lateral and 4.0 mm ventral, and (6) 4.2 mm anterior, 0.8 mm right lateral and 4.0 mm ventral, each from the bregma suture of the rats to lesion dopaminergic terminals in the medial prefrontal cortex. 6-OHDA was prepared at a concentration of 4 μg/μL, injected at a flow rate of 1 μL/min over 1 min, and stood for 1 min. In the sham operated group, a stainless cannula was inserted into the same coordinates. […] The dosing volumes of pentobarbital sodium and desipramine hydrochloride were calculated at 1 and 5 mL/kg based on the body weight measured on the administration day. […]
To familiarize the rats with the experimenter, they were handled for 3 days before the test. […] The time spent in exploration (sniffing) each object of the rats in the test trial was measured, and the ratio (%) relative to the total exploration time was calculated. […]

[2] = tested on: NAC61-95-treated Slc:ICR mice (α-synucleinopathy model); assay: Spontaneous alternation task (Y-maze) in NAC61-95-treated α-synucleinopathy model mice; type: in vivo, mouse; details: NAC61-95 mice
Experimental: (§1) By reference to articles (Science, 338, p. 949 (2012); Behavioral Brain Reexplore, 208, p. 274 (2010)), an animal model capable of confirming a treatment and/or prophylactic effect on α-synucleinopathy, for example, Lewy body disease (for example, cognitive impairment in Parkinson's disease, diffuse Lewy body disease, dementia with lewy bodies, movement disorder associated with Lewy body disease and the like) was generated as follows.
The cognitive function was evaluated using a spontaneous alternation task. The spontaneous alternation task is known as an evaluation system of cognitive function utilizing properties of animal to willingly explore a novel environment (Neuroscience and Biobehavioral Reviews 28, p. 497 (2004)). […] The motor function was evaluated by analyzing gait function in natural walk conditions using a gait analysis system. […]
Mice were brought into the experiment room on the previous day of test for habituation. […] Entry of all four limbs of a mouse into one arm was defined as entry into arm, and the order of entry of the mice into the arm was recorded. A behavior of continuous entry into all three different arms was defined as spontaneous alternation behavior, and the percentage of alternation behavior was calculated by the following calculation formula. […]

[3] = tested on: NAC61-95-treated Slc:ICR mice (α-synucleinopathy model); assay: Gait analysis (CatWalk XT) in NAC61-95-treated α-synucleinopathy model mice; type: in vivo, mouse; details: NAC61-95 mice
Experimental: as §1
The cognitive function was evaluated using a spontaneous alternation task. The spontaneous alternation task is known as an evaluation system of cognitive function utilizing properties of animal to willingly explore a novel environment (Neuroscience and Biobehavioral Reviews 28, p. 497 (2004)). That is, if the animal remembers the arm previously entered in exploration in a Y-maze apparatus, the behavior of spontaneous entry into a different arm is expressed by an alternation behavior rate, and used as an index of cognitive function. The motor function was evaluated by analyzing gait function in natural walk conditions using a gait analysis system.
NAC61-95 (custom, Sigma) was dissolved in PBS to prepare 4 μg/μL NAC61-95 solution.
Under pentobarbital (Somnopentyl, Kyoritsuseiyaku, 50 mg/kg, i.p.) anesthesia, 5 μL of NAC61-95 solution was injected using a Hamilton syringe (10 μL) equipped with a double needle (27G, needle length 3 mm) into the right lateral cerebral ventricle of Slc:ICR mice (male, Japan SLC) over about 1 min, and stood for 1 min to induce cognitive impairment and/or movement disorder. The sham treatment group was injected with 5 μL of PBS.
A gait analysis system (CatWalk XT, ver. 9.1, Noldus) was used. The system was constituted of a walkway with pressure dependent luminescence glass and a light source, luminescence ceiling, highly sensitive highspeed camera and analysis software, and the gait was analyzed by digitizing the brightness of the light emitted by the pressure dependent luminescence glass in response to the pressure. The gait data was automatically recorded and analyzed by the analysis software only when the mice moved straight forward without stopping in the predetermined area on the walkway.
The mice were brought into the experiment room without light and habituated for not less than 1 hr. The mice were placed in the apparatus, and allowed to walk freely until 6 running data were obtained for each mouse. The earliest three analyzable running data were used, and mean was calculated. By reference to an article relating to movement disorder in Parkinson's disease animal model (Journal of Biomedical Science 17, p. 9 (2010)), a decrease in the maximum contact area (Total surface area of certain paw at the moment of maximum paw contact) and print area (total surface area of the paw print), as well as change in the gait pattern (sequence of contact of 4 paws) were used as indices of movement disorder.
At 60 min before the test, compound (I) (suspended in 0.5 w/v % aqueous MC solution, and prepared to 0.5 mL per 100 g body weight of mouse on the administration day) was orally administered at a dose of 0.1 mg/kg, or a vehicle (0.5 w/v % aqueous MC solution) free of the test compound was orally administered at 0.5 mL per 100 g body weight of mice on the administration day.

[4] = tested on: SLC: ICR male mice injected with α-synuclein or NAC61-95; assay: α-Synucleinopathy model (α-synuclein or NAC61-95 injected mice), behavioral pharmacological evaluation, Experimental Example 2; type: in vivo, mouse; details: appropriate dose, a few hours after administration; written in present tense, no data
Source text: as §1, with “is generated.” for “was generated as follows.”
An appropriate dose of a solution of α-synuclein (rPeptide, S-100) or NAC61-95 (custom, Sigma) dissolved in phosphate buffered saline (PBS) is injected to the striatum or lateral cerebral ventricle of SLC: ICR male mice to induce cognitive impairment and/or movement disorder. After confirmation of the pathology induction, an appropriate dose of compound (I) is administered to the mice.

[5] = 0.3 mg/kg orally 60 min before test, 3 min test trial, mean±standard error
[6] = 0.1 mg/kg orally 60 min before test, mean±standard error

## Cc1ccc(C(=O)Nc2nc(-c3ccco3)c(C(=O)C3CCOCC3)s2)cn1 [compound (I)]
[1]; [5]
  ratio (%) of exploration time, familiar object: 34.97 ± 2.88%
  ratio (%) of exploration time, novel object: 65.03 ± 2.88%
[1]; 0.3 mg/kg orally, paired t-test p<0.001
  exploration time of the novel object compared with the familiar object: significantly longer
[2]; 0.1 mg/kg orally 60 min before test, Y-maze 7 min, mean±standard error
  alternation behavior (%): 69.5 ± 2.4%
[2]; 0.1 mg/kg orally, Student's t-test p<0.01
  alternation behavior compared to the vehicle administration group: significantly high
[3]; AA: right forepaw → right hindpaw → left forepaw → left hindpaw, 0.1 mg/kg orally, mean±standard error
  gait pattern AA: 0.00 ± 0.00
[3]; AB: right forepaw → left hindpaw → left forepaw → right hindpaw, 0.1 mg/kg orally, mean±standard error
  gait pattern AB: 81.86 ± 4.25
[3]; CA: right forepaw → left forepaw → right hindpaw → left hindpaw, 0.1 mg/kg orally, mean±standard error
  gait pattern CA: 13.39 ± 4.00
[3]; CB: right forepaw → left hindpaw → right hindpaw → left forepaw, 0.1 mg/kg orally, mean±standard error
  gait pattern CB: 4.75 ± 1.79
[3]; 0.1 mg/kg orally
  change of gait pattern compared to the vehicle administration group: an increase in pattern AB and a decrease in pattern CB
[3]; [6]
  maximum contact area, left forepaw: 0.30 ± 0.02
  maximum contact area, left hindpaw: 0.31 ± 0.02
  maximum contact area, right forepaw: 0.29 ± 0.02
  maximum contact area, right hindpaw: 0.30 ± 0.02
  print area, left forepaw: 0.40 ± 0.02
  print area, left hindpaw: 0.38 ± 0.03
  print area, right forepaw: 0.39 ± 0.02
  print area, right hindpaw: 0.37 ± 0.03
[3]; 0.1 mg/kg orally, p<0.05
  maximum contact area and gait area of the left hindpaw compared to the vehicle administration group: significantly large
[3]; 0.1 mg/kg orally, p<0.1
  maximum contact area and gait area of the right forepaw compared to the vehicle administration group: tendency of the maximum contact area and gait area of the right forepaw being large
[4]
  pathology (cognitive impairment and/or movement disorder) by Y-maze, spontaneous motor activity, CATWALK: Improvement of the pathology
